ChEMBL document CHEMBL1133330, “N-benzylpyroglutamyl-L-phenylalanine derivatives as VCAM/VLA-4 antagonists” (Bioorg Med Chem Lett, 2000)

How the values were obtained:
Integrin alpha-4/beta-1 [1] = biological target: T1, Integrin alpha-4/beta-1 (Homo sapiens, UniProt P05556+P13612); assay: Antagonistic activity against VLA-4 (derived from ramos cells) binding to recombinant human VCAM by ELISA assay; assay type: cell-based
Integrin alpha-4/beta-1 [2] = biological target: T1, Integrin alpha-4/beta-1; assay: Antagonistic activity against VLA-4 binding to recombinant human VCAM by ramos cell assay; assay type: cell-based

T1 sequence (P05556 whole entry): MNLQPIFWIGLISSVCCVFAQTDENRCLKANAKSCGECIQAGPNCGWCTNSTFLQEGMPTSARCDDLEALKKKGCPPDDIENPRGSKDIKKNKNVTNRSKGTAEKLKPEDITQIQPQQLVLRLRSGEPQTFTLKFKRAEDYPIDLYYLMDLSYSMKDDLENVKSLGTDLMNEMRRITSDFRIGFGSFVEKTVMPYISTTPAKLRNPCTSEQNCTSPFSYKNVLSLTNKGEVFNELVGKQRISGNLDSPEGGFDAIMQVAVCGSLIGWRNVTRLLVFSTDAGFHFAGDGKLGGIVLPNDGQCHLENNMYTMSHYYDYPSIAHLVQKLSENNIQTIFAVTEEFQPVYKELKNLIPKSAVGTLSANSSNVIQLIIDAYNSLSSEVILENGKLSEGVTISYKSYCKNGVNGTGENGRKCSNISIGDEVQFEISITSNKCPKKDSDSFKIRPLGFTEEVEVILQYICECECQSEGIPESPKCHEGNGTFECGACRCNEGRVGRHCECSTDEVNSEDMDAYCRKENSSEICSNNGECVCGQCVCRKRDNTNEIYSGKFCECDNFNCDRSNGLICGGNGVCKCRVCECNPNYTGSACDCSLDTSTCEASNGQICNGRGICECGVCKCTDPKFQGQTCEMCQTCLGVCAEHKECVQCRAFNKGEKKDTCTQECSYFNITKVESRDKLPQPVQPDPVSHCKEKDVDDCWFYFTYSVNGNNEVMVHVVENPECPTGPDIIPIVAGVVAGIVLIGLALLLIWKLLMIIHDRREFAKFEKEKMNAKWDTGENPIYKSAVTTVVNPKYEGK
T1 sequence (P13612 whole entry): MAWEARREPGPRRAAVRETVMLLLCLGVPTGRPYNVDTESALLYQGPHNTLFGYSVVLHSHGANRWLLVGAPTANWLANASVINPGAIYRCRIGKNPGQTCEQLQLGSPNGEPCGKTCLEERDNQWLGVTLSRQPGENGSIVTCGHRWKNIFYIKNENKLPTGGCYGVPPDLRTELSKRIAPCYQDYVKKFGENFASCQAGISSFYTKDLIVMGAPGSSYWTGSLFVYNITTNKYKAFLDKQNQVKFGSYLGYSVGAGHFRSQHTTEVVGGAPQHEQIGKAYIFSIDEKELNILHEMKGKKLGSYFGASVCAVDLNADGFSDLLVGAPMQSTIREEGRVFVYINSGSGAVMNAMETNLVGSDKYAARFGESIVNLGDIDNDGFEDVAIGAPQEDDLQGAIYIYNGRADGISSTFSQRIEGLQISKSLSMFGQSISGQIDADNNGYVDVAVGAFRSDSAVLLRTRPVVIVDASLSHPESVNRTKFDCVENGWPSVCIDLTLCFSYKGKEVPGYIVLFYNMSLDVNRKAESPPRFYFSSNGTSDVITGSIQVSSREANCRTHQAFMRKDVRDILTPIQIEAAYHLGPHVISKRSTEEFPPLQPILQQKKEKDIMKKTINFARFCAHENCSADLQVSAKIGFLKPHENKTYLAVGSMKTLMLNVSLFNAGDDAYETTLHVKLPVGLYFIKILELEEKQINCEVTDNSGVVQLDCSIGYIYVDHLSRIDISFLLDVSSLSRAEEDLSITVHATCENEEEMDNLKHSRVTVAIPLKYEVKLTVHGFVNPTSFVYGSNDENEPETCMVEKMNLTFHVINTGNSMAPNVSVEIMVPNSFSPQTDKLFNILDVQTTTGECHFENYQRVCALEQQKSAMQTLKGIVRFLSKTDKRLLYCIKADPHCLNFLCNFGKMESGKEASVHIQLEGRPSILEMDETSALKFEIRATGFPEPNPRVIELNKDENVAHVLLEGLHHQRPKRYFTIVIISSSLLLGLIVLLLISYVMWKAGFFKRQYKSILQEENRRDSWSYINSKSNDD

IC50 (Integrin alpha-4/beta-1 [1]) [nM] | IC50 (Integrin alpha-4/beta-1 [2]) [nM] | Compound
0.87 | 33 | O=C(Nc1ccc(C[C@H](NC(=O)C2CCC(=O)N2Cc2ccccc2)C(=O)O)cc1)c1ccccc1[N+](=O)[O-] (stereo partly drawn)
4.6 | 260 | N#Cc1cccc(C(=O)Nc2ccc(C[C@H](NC(=O)C3CCC(=O)N3Cc3ccccc3)C(=O)O)cc2)c1 (stereo partly drawn)
53 |  | O=C(NCc1ccc(C[C@H](NC(=O)[C@@H]2CCC(=O)N2Cc2ccccc2)C(=O)O)cc1)c1cccnc1
90 |  | O=C(O)[C@H](Cc1ccc(/C=C/c2ccc([N+](=O)[O-])cc2)cc1)NC(=O)[C@@H]1CCC(=O)N1Cc1ccccc1
5.3 | 1900 | CC(=O)N[C@H](Cc1ccc(O)cc1)C(=O)Nc1ccc(C[C@H](NC(=O)[C@@H]2CCC(=O)N2Cc2ccccc2)C(=O)O)cc1
6.3 | 310 | O=C(Nc1ccc(C[C@H](NC(=O)[C@@H]2CCC(=O)N2Cc2ccccc2)C(=O)O)cc1)c1ccccc1
0.82 | 28 | COc1ccc([N+](=O)[O-])cc1C(=O)Nc1ccc(C[C@H](NC(=O)C2CCC(=O)N2Cc2ccccc2)C(=O)O)cc1 (stereo partly drawn)
4 | 1850 | O=C(Nc1ccc(C[C@H](NC(=O)C2CCC(=O)N2Cc2ccccc2)C(=O)O)cc1)c1cccnc1O (stereo partly drawn)
1.4 | 80 | O=C(Nc1ccc(C[C@H](NC(=O)C2CCC(=O)N2Cc2ccccc2)C(=O)O)cc1)c1ccnc2ccccc12 (stereo partly drawn)
20 |  | CC(=O)N[C@@H](Cc1ccc(O)cc1)C(=O)NCc1ccc(C[C@H](NC(=O)[C@@H]2CCC(=O)N2Cc2ccccc2)C(=O)O)cc1
1.6 | 127 | O=C(Nc1ccc(C[C@H](NC(=O)C2CCC(=O)N2Cc2ccccc2)C(=O)O)cc1)c1cc(F)c(F)cc1F (stereo partly drawn)
32 |  | O=C(O)[C@H](Cc1ccc(COc2ccc([N+](=O)[O-])cc2)cc1)NC(=O)[C@@H]1CCC(=O)N1Cc1ccccc1
38 |  | O=C(O)[C@H](Cc1ccc(CCc2ccccc2)cc1)NC(=O)[C@@H]1CCC(=O)N1Cc1ccccc1
20 | 26000 | O=C(O)[C@H](Cc1ccc(NS(=O)(=O)c2cccc(C(F)(F)F)c2)cc1)NC(=O)[C@@H]1CCC(=O)N1Cc1ccccc1
74 |  | [N-]=[N+]=NCc1ccc(C[C@H](NC(=O)[C@@H]2CCC(=O)N2Cc2ccccc2)C(=O)O)cc1
220 |  | O=C(O)[C@H](Cc1ccc2c(c1)OCO2)NC(=O)[C@@H]1CCC(=O)N1Cc1ccccc1
8.2 | 2100 | CC(=O)N[C@@H](Cc1ccc(O)cc1)C(=O)Nc1ccc(C[C@H](NC(=O)[C@@H]2CCC(=O)N2Cc2ccccc2)C(=O)O)cc1
0.74 | 77 | Cc1ccc([N+](=O)[O-])c(C(=O)Nc2ccc(C[C@H](NC(=O)C3CCC(=O)N3Cc3ccccc3)C(=O)O)cc2)c1 (stereo partly drawn)
560 |  | O=C(O)[C@H](Cc1ccc([N+](=O)[O-])cc1)NC(=O)[C@@H]1CCC(=O)N1Cc1ccccc1
59 |  | O=C(O)[C@H](Cc1ccc2ccccc2c1)NC(=O)[C@@H]1CCC(=O)N1Cc1ccccc1

IC50 (Integrin alpha-4/beta-1 [1]) [nM] | IC50 (Integrin alpha-4/beta-1 [2]) [nM] | Compound
460 |  | O=C(O)[C@H](Cc1ccccc1)NC(=O)[C@@H]1CCC(=O)N1Cc1ccccc1
42500 |  | CC1CCC(C[C@H](NC(=O)[C@@H]2CCC(=O)N2Cc2ccccc2)C(=O)O)CC1 (stereo partly drawn)
53 |  | O=C(O)[C@H](Cc1ccc(C#Cc2ccccc2)cc1)NC(=O)[C@@H]1CCC(=O)N1Cc1ccccc1
152 |  | O=C(O)[C@H](Cc1ccc(CO)cc1)NC(=O)[C@@H]1CCC(=O)N1Cc1ccccc1
3.5 | 1060 | NS(=O)(=O)c1ccc(C(=O)Nc2ccc(C[C@H](NC(=O)C3CCC(=O)N3Cc3ccccc3)C(=O)O)cc2)cc1 (stereo partly drawn)
2.2 | 560 | O=C(Nc1ccc(C[C@H](NC(=O)[C@@H]2CCC(=O)N2Cc2ccccc2)C(=O)O)cc1)c1ccc([N+](=O)[O-])cc1
230 |  | O=C(O)[C@H](Cc1cccc2ccccc12)NC(=O)[C@@H]1CCC(=O)N1Cc1ccccc1
0.26 | 11 | Cc1ccc([N+](=O)[O-])cc1C(=O)Nc1ccc(C[C@H](NC(=O)C2CCC(=O)N2Cc2ccccc2)C(=O)O)cc1 (stereo partly drawn)
0.88 | 29 | COc1ccc(-c2cccnc2C(=O)Nc2ccc(C[C@H](NC(=O)C3CCC(=O)N3Cc3ccccc3)C(=O)O)cc2)cc1 (stereo partly drawn)
1000 |  | N#Cc1ccc(C[C@H](NC(=O)[C@@H]2CCC(=O)N2Cc2ccccc2)C(=O)O)cc1
2.4 | 33 | Cc1ccc(C(=O)Nc2ccc(C[C@H](NC(=O)C3CCC(=O)N3Cc3ccccc3)C(=O)O)cc2)c(Cl)n1 (stereo partly drawn)
0.37 | 7 | O=C(Nc1ccc(C[C@H](NC(=O)C2CCC(=O)N2Cc2ccccc2)C(=O)O)cc1)c1ccc(Cl)cc1[N+](=O)[O-] (stereo partly drawn)
17 | 16000 | O=C(O)[C@H](Cc1ccc(NS(=O)(=O)c2ccc([N+](=O)[O-])cc2)cc1)NC(=O)[C@@H]1CCC(=O)N1Cc1ccccc1
0.75 | 28 | O=C(Nc1ccc(C[C@H](NC(=O)C2CCC(=O)N2Cc2ccccc2)C(=O)O)cc1)c1ccc(F)cc1C(F)(F)F (stereo partly drawn)
160 |  | COc1ccc(C[C@H](NC(=O)[C@@H]2CCC(=O)N2Cc2ccccc2)C(=O)O)cc1
3.6 | 260 | O=C(Nc1ccc(C[C@H](NC(=O)C2CCC(=O)N2Cc2ccccc2)C(=O)O)cc1)c1ccccn1 (stereo partly drawn)
1.1 | 54 | O=C(Nc1ccc(C[C@H](NC(=O)C2CCC(=O)N2Cc2ccccc2)C(=O)O)cc1)c1cc(C(F)(F)F)ccc1C(F)(F)F (stereo partly drawn)
18 |  | O=C(O)[C@H](Cc1ccc(OCc2ccc([N+](=O)[O-])cc2)cc1)NC(=O)[C@@H]1CCC(=O)N1Cc1ccccc1
0.37 | 12 | O=C(Nc1ccc(C[C@H](NC(=O)C2CCC(=O)N2Cc2ccccc2)C(=O)O)cc1)c1c(Cl)cccc1Cl (stereo partly drawn)
2.4 | 102 | COc1ccc(C(=O)Nc2ccc(C[C@H](NC(=O)C3CCC(=O)N3Cc3ccccc3)C(=O)O)cc2)c(OC)n1 (stereo partly drawn)
